Test: xn = mol fraction of the nth substance listed

C1CCOC1 + CCCO
viscosity [mPa·s], 101 kPa
Conditions	298.15 K	303 K	313 K
x1 = 0.0992	–	1.22	1.04
x1 = 0.1999	–	1.08	0.9
x1 = 0.2846	–	1	0.85
x1 = 0.39	–	0.91	0.77
x1 = 0.5	0.7603	–	–
x1 = 0.5146	–	0.8	0.69
x1 = 0.5918	–	0.73	0.65
x1 = 0.7012	–	0.64	0.57
x1 = 0.8028	–	0.57	0.51
x1 = 0.894	–	0.5	0.47
x1 = 0.9761	–	0.44	0.42

CC(=O)Oc1ccccc1C(=O)O + CCCO
viscosity [mPa·s], 101 kPa
Conditions	x1 = 0.00057	x1 = 0.000763	x1 = 0.000955	x1 = 0.00115	x1 = 0.00134	x1 = 0.00153	x1 = 0.00191
293.15 K	2.257	2.26	2.261	2.262	2.265	2.266	2.27
298.15 K	2.207	2.209	2.21	2.211	2.213	2.215	2.217
303.15 K	1.718	1.719	1.719	1.721	1.722	1.723	1.726
308.15 K	1.622	1.623	1.624	1.625	1.626	1.627	1.628
310.15 K	1.458	1.459	1.459	1.46	1.46	1.461	1.461
313.15 K	1.397	1.398	1.399	1.399	1.399	1.4	1.401

CC(C)=O + CCCO
viscosity [mPa·s]
Conditions	293.15 K	298.15 K	303.15 K	308.15 K	313.15 K	318.15 K	323.15 K
100 kPa, x1 = 0.0998	1.594	1.433	1.292	1.169	1.061	0.9672	0.8879
100 kPa, x1 = 0.1998	1.18	1.075	0.9822	0.8994	0.825	0.7583	0.6972
100 kPa, x1 = 0.3	0.9113	0.8407	0.7774	0.7203	0.6684	0.6206	0.576
100 kPa, x1 = 0.4001	0.735	0.6844	0.6379	0.595	0.5538	0.5147	0.4769
100 kPa, x1 = 0.4999	0.6175	0.5801	0.5456	0.513	0.4815	0.4495	0.4195
100 kPa, x1 = 0.6	0.5137	0.4875	0.4629	0.4389	0.4158	0.392	0.3661
100 kPa, x1 = 0.6998	0.4493	0.429	0.4094	0.3911	0.3733	0.3543	0.3317
100 kPa, x1 = 0.8002	0.407	0.391	0.3751	0.3599	0.3448	0.3286	0.3156
100 kPa, x1 = 0.9	0.3728	0.3531	0.34	–	0.301	0.2875	0.279
100 kPa, x1 = 0.9001	–	–	–	0.3221	–	–	–
101 kPa, x1 = 0.1032	–	1.433	–	–	–	–	–
101 kPa, x1 = 0.2056	–	0.9891	–	–	–	–	–
101 kPa, x1 = 0.3073	–	0.7819	–	–	–	–	–
101 kPa, x1 = 0.4083	–	0.6403	–	–	–	–	–
101 kPa, x1 = 0.5086	–	0.5381	–	–	–	–	–
101 kPa, x1 = 0.6082	–	0.4652	–	–	–	–	–
101 kPa, x1 = 0.7072	–	0.4139	–	–	–	–	–
101 kPa, x1 = 0.8055	–	0.3742	–	–	–	–	–
101 kPa, x1 = 0.903	–	0.3453	–	–	–	–	–

COc1ccccc1 + CCCO
viscosity [mPa·s], 101 kPa
Conditions	x1 = 0.1207	x1 = 0.236	x1 = 0.3462	x1 = 0.4516	x1 = 0.5526	x1 = 0.6495	x1 = 0.7424	x1 = 0.8317	x1 = 0.9175
303 K	1.448	1.219	1.138	1.075	0.9286	0.8908	0.8219	0.8308	0.8695
313 K	1.176	1.046	0.9616	0.8924	0.7921	0.7847	0.7639	0.7523	0.7392
323 K	0.9186	0.8788	0.759	0.7338	0.6514	0.6115	0.6084	0.5967	0.598

— the CheMixHub viscosity set
